Source: patent publication US7989495B2, “Compositions and methods for inhibiting NF-κB mediated tumorigenicity and adhesion dependent survival of cancer cells” (University of Utah Research Foundation, priority 2002, dated 2011)
“Also recorded” adds a separate entry of the source.

Key:
[1] = tested on: transiently suspended HT-29 cells; assay: Apoptosis (annexin V) of transiently suspended cells allowed to readhere; assay type: cell-based
Method: HT-29 cells that were either transiently suspended with trypsin-EDTA or adherent for three days, were treated at time zero with DMSO or 10-100 μM BAY 11-7085. The percent of apoptotic cells was determined using the annexin V flow cytometry assay and graphed versus the dose of BAY 11-7085. […] The cells were fixed and immunostained with an NF-κB p65 subunit monoclonal antibody.
The transiently suspended cells were lysed and allowed to bind to DNA oligonucleotides, containing the NF-κB consensus binding site, that were immobilized to 96-well plates. NF-κB protein bound to the oligonucleotides was detected by an antibody to the p65 subunit that only recognized p65 that is bound to DNA. The positive control was HeLa cells that were stimulated with TNFα A control was performed using excess free NF-κB oligonucleotides (Competitor). […] NF-κB binding activity was determined by the TransAM assay as in FIG. 5A. […] The data shown represent typical results of three separate experiments. […] An immunoblot for COX-2 was performed.
The percentage of apoptotic cells was determined using the annexin V assay. The data points represent the averages of three experiments; bars, ±SE. E. DLD-1 and F. HT-29 cells were transduced with an adenovirus containing the IκB super-repressor construct. After 3 days, the cells were transiently suspended and allowed to readhere in the presence of subapoptotic concentrations of BAY 11-7085 or DMSO (vehicle) for 8 h. The data are expressed as fractions of cells surviving compared with the controls (no adenovirus) and were quantitatively determined by staining the remaining adherent cells with crystal violet.
(§1) Single cell suspensions were plated at 100,000 cells per well in 24-well plates in media containing DMSO, BAY 11-7082, BAY 11-7085, or MG-132 for 8-24 hours in an incubator. Alternatively, DMSO, BAY 11-7082, BAY 11-7085, or MG-132 were added to cells that were confluent and adherent for several days. The nonadherent cells were aspirated off with the media and spun for 3 minutes at 2,000 rpm in 15 ml polypropylene tubes. The adherent cells were washed twice with PBS, dispersed in trypsin, and spun down for 3 minutes at 2,000 rpm in 15 ml polypropylene tubes. The nonadherent and adherent cells were resuspended in 1× binding buffer (10 mM HEPES/NaOH, pH 7.4, 140 mM NaCl, and 2.5 mM CaCl2) to a final concentration of 10^6 cells/ml. 100 μl of the cell solution were transferred to a 5 ml culture tube and incubated with 5 μl of annexin V-FITC-conjugated monoclonal antibody (Pharmingen) and 10 μl of propidium iodide (from a 50 μg/ml stock solution made in PBS) in the dark at 25° C. for 15 minutes. 400 μl of binding buffer was added to each tube and the cells were analyzed by flow cytometry immediately. The percent of apoptosis was determined as the percent of annexin V-positive, propidium iodide-negative cells of the total cells counted.
Various concentrations of BAY 11-7085 were added to HT-29 cells that were transiently suspended in trypsin-PBS for approximately 15 minutes before replating. The transiently suspended cells were quickly allowed to readhere in order to prevent anoikis. Alternatively, BAY 11-7085 was added to adherent HT-29 cell monolayers.

adherent HT-29 cells = assay: Apoptosis assay (annexin V-FITC / propidium iodide flow cytometry), adherent cells; assay type: cell-based; details: for level of apoptosis (annexin V-positive, propidium iodide-negative cells): doses up to 20 μM (MG-132 20 μM), 24 hours
Method: The data points represent the average percent of annexin V-positive, propidium iodide-negative cells (of the total cells counted) from triplicate experiments. The error bars represent the standard error of the means. […] The results shown are a graphic representation of individual flow cytometry results expressed as the percentage of cells that were annexin V-positive of those that excluded propidium iodide. […] An immunoblot of the lysates for cleaved PARP was performed. Each lane represents equal total protein concentrations. […] The cells were allowed to adhere to plastic dishes for 1 hour after which they were washed gently in PBS and stained with crystal violet. The crystal violet stained cells were solubilized in deoxycholate and the absorbance detected in a spectrophotometer at 590 nm. The adherent cells were expressed as a fraction of the controls Each data point represents the average of triplicate experiments and the error bars the standard errors of the means.
as §1

[2] = tested on: TNFα-induced NF-κB activation; details: Pierce et al., 1997; cited from earlier work
DLD-1 cells = assay: Soft agar colony formation assay (anchorage-independent proliferation); assay type: cell-based; details: 10 μM, 6 days in soft agar
Method: (§2) DLD-1, HCT-116, and HT-29 cells were cultured for 6 days in soft agar in the presence of DMSO (control), 10 μM BAY 11-7082, or 10 μM BAY 11-7085. The data points represent the means of colony counts per field (20×) performed in 5 different regions of the culture dishes. The data shown represent a typical result of two separate experiments. FIGS. 2B,C, show athymic mice received subcutaneous injections of HT-29 (B) or HCT-116 (C) cells, followed by […] of BAY 11-7085 (dark bars) or DMSO (white bars) intraperitoneally twice weekly. The bars represent the 25-75% ranges of the tumor volumes and the horizontal lines in the bars are the medians. Using the Kruskal-Wallace statistical test to compare the median tumor volumes between BAY 11-7085 and DMSO yielded a p-value of 0.005 for HT-29 cells but >0.05 for HCT-116 cells.
(§3) Anchorage-independent cell growth is a hallmark of cancer cells and is a good correlate to tumorigencity in vivo. Therefore, the effects of BAY 11-7082 and BAY 11-7085 were examined on colon cancer cell growth using the soft agar colony formation assay.

HT-29 cells = assay: as above; assay type: cell-based; details: 10 μM, 6 days in soft agar
Method: as §2, §3

arthritis = details: Pierce et al., 1997; cited from earlier work
JNK/SAPK and p38 = details: Pierce et al., 1997; cited from earlier work
[3] = HT-29, increasing concentrations, 8 hours, 24 h

## Cc1ccc(S(=O)(=O)/C=C/C#N)cc1 [BAY 11-7082, (2E)-3-(tolysulfonyl)-2-propenenitrile]
[1]; HT-29
  share of transiently suspended, readhering cells that became apoptotic: vast majority
Adherent HT-29 cells; adherent HT-29
  level of apoptosis (annexin V-positive, propidium iodide-negative cells): caused an increase in the level of apoptosis
[2]
  effect on TNFα-induced NF-κB activation: inhibit
DLD-1 cells
  inhibition of anchorage-independent proliferation: significantly inhibited
HT-29 cells
  inhibition of anchorage-independent proliferation: significantly inhibited
arthritis
  effect on NF-κB and arthritis in rodent models: inhibit NF-κB and arthritis in rodent models
JNK/SAPK and p38
  effect on JNK/SAPK and p38: activate JNK/SAPK and p38

## CC(C)(C)c1ccc(S(=O)(=O)/C=C/C#N)cc1 [BAY 11-7085, (2E)-3-[4-(tertiarybutylphenyl)sulfonyl]-2-propenenitrile]
[1]; HT-29
  in vitro apoptotic threshold during readhesion: > 20 µM
  share of transiently suspended, readhering cells that became apoptotic: vast majority
[1]; HT-29, transiently suspended, treated, allowed to readhere 8 hours
  BAY 11-7085-induced apoptosis during readhesion: showed the same propensity for BAY 11-7085-induced apoptosis
[1]; HT-29 suspended in trypsin about 15 minutes then replated, 10-100 μM
  apoptosis of transiently suspended cells: caused a significant increase in apoptosis
Adherent HT-29 cells; HT-29, 50 and 100 μM, cells annexin V and propidium iodide positive (necrotic)
  percentage of apoptosis in the non-adherent cell fraction at high vs lower concentrations: decreased
Adherent HT-29 cells; [3]
  percentage of apoptotic cells among cells that became non-adherent: majority; also recorded: predominantly apoptotic
  percentage of apoptotic cells among cells that remained adherent: only a minority
Adherent HT-29 cells; adherent HT-29
  level of apoptosis (annexin V-positive, propidium iodide-negative cells): relatively greater for MG-132 than BAY 11-7085; also recorded: caused an increase in the level of apoptosis
Adherent HT-29 cells; adherent HT-29, even the highest doses (10-100 μM)
  apoptosis of adherent cell monolayers compared with transiently suspended cells: only a relatively small degree of apoptosis
[2]
  effect on TNFα-induced NF-κB activation: inhibit
DLD-1 cells
  inhibition of anchorage-independent proliferation: significantly inhibited
HT-29 cells
  inhibition of anchorage-independent proliferation: significantly inhibited
arthritis
  effect on NF-κB and arthritis in rodent models: inhibit NF-κB and arthritis in rodent models
JNK/SAPK and p38
  effect on JNK/SAPK and p38: activate JNK/SAPK and p38
